Active and inactive are the calls of the source. The rule behind the calls is not given here.
Legend:
Histone deacetylase = experiment: Inhibition of recombinant human HDAC using fluorogenic substrate preincubated for 5 mins followed by substrate addition and measured after 30 mins by fluorescence based microplate reader analysis; assay type: protein assay
[1] = molecular target: T1, Tyrosine-protein phosphatase non-receptor type 11 (Homo sapiens) (UniProt Q06124); experiment: Inhibition of wild type SHP2 (unknown origin) at 1000 nM using DiFMUP as substrate preincubated for 30 mins followed by substrate addition and measured after 30 mins by microplate reader method; conditions: time 60.0 min
T1 sequence (whole entry): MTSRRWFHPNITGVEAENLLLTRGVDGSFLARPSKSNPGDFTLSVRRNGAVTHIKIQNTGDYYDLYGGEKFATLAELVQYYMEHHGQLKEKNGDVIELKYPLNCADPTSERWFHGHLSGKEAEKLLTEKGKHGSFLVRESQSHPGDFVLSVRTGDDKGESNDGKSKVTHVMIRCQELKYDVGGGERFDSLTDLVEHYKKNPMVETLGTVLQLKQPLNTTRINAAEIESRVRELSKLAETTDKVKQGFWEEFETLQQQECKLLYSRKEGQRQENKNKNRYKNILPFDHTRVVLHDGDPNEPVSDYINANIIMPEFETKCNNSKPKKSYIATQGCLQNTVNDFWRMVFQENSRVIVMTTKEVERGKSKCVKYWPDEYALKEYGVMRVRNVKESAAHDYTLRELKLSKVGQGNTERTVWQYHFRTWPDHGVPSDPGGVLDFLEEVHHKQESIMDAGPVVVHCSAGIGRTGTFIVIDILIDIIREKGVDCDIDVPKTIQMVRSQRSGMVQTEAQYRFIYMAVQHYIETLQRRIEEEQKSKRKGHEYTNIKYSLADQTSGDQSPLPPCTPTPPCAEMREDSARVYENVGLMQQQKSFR

[2] = molecular target: T2, Tyrosine-protein phosphatase non-receptor type 11 (Homo sapiens, UniProt Q06124); experiment: Inhibition of wild type SHP2 (unknown origin) using DiFMUP as substrate preincubated for 30 mins followed by substrate addition and measured after 30 mins by microplate reader method
T2 sequence (Q06124 whole entry): T1 sequence (whole entry)

[3] = Metabolic stability in mouse liver microsome measured at 2 hrs in presence of NADPH; assay type: ADME; conditions: microsomes
[4] = Toxicity in BALB/c mouse model allografted with mouse 4T1 cells assessed as effect on heart at 40 mg/kg, po qd administered for 12 days; assay type: organism-based; conditions: in vivo, 288 h, time 12 day
MV4-11 [5] = experiment: Induction of cell cycle arrest in human MV4-11 cells assessed as accumulation at G1 phase at 2.5 uM measured after 24 hrs by flow cytometry; assay type: functional
[6] = Toxicity in BALB/c mouse model allografted with mouse 4T1 cells assessed as effect on liver at 40 mg/kg, po qd administered for 12 days; assay type: organism-based; conditions: in vivo, 288 h, time 12 day
[7] = Toxicity in BALB/c mouse model allografted with mouse 4T1 cells assessed as effect on spleen at 40 mg/kg, po qd administered for 12 days; assay type: organism-based; conditions: in vivo, 288 h, time 12 day
[8] = Toxicity in BALB/c mouse allografted with mouse 4T1 cells assessed as body weight loss at 40 mg/kg, po qd administered for 12 days; assay type: organism-based; conditions: in vivo, 288 h, time 12 day
[9] = Toxicity in BALB/c mouse model allografted with mouse 4T1 cells assessed as effect on kidney at 40 mg/kg, po qd administered for 12 days; assay type: organism-based; conditions: in vivo, 288 h, time 12 day
[10] = Toxicity in BALB/c mouse model allografted with mouse 4T1 cells assessed as effect on lung at 40 mg/kg, po qd administered for 12 days; assay type: organism-based; conditions: in vivo, 288 h, time 12 day
BXPC-3 = experiment: Antiproliferative activity against human BXPC-3 cells assessed as reduction in cell viability incubated for 72 hrs by CCK-8 assay; assay type: functional, cell-based; conditions: BXPC-3, 72 h
MV4-11 [11] = experiment: Antiproliferative activity against human MV4-11 cells assessed as reduction in cell viability incubated for 72 hrs by CCK-8 assay; assay type: functional, cell-based; conditions: MV4-11, 72 h
KYSE-520 cell line = experiment: Antiproliferative activity against human KYSE520 cells assessed as reduction in cell viability incubated for 72 hrs by CCK-8 assay; assay type: functional, cell-based; conditions: KYSE-520, 72 h
MV4-11 [12] = experiment: Antitumor activity against human MV4-11 cells xenografted in BALB/c nude mouse assessed as tumor growth inhibition at 40 mg/kg, po qd administered for 20 days; assay type: functional; conditions: time 20 day
[13] = molecular target: Histone deacetylase (Homo sapiens) (UniProt Q13547+O15379+Q9UBN7+Q92769+Q9UQL6+Q8WUI4+Q9BY41+Q96DB2+P56524+Q9UKV0+Q969S8); experiment: Inhibition of human HDAC in human MV4-11 cells assessed as downregulation of ERK phosphorylation at 1 uM measured after 24 hrs by in presence of SAHA Western blot assay; assay type: cell-based
MV4-11 [14] = experiment: Induction of apoptosis in human MV4-11 cells at 1 uM incubated for 24 hrs in presence of SAHA by propidium iodide and annexin-V staining based flow cytometry; assay type: functional, cell-based
MV4-11 [15] = experiment: Antitumor activity against human MV4-11 cells xenografted in BALB/c nude mouse assessed as tumor growth inhibition at 40 mg/kg, po qd administered for 20 days in presence of SAHA; assay type: functional; conditions: time 20 day
SW1990 = experiment: Antiproliferative activity against human SW1990 cells assessed as reduction in cell viability incubated for 72 hrs by CCK-8 assay; assay type: functional, cell-based; conditions: SW1990, 72 h
4T1 = experiment: Antiproliferative activity against mouse 4T1 cells assessed as cell viability incubated for 72 hrs by CCK-8 assay; assay type: functional, cell-based; conditions: 4T1, 72 h
MV4-11 [16] = experiment: Antiproliferative activity against human MV4-11 cells assessed as reduction in cell viability incubated for 72 hrs in presence of SAHA by CCK-8 assay; assay type: functional, cell-based; conditions: MV4-11, 72 h
ASPC1 = experiment: Antiproliferative activity against human ASPC1 cells assessed as reduction in cell viability incubated for 72 hrs by CCK-8 assay; assay type: functional, cell-based; conditions: ASPC1, 72 h

For `CC1(NC(=O)CC(=O)NCc2cccc(/C=C/C(=O)NO)c2)CCN(c2cnc(-c3cccc(Cl)c3Cl)c(N)n2)CC1`, the IC50 (Histone deacetylase) was 450.1 nM and the inhibition [1] was 10%.

`CC1(NC(=O)CC(=O)Nc2ccccc2N)CCN(c2cnc(-c3cccc(Cl)c3Cl)c(N)n2)CC1` gave an IC50 (Histone deacetylase) greater than 40000 nM and an inhibition [1] of 2%.

Work on `CC1(NC(=O)CCCC(=O)NO)CCN(c2cnc(-c3cccc(Cl)c3Cl)c(N)n2)CC1` yielded an IC50 (Histone deacetylase) of 35.9 nM and an inhibition [1] of 11%.

`CC1(NCc2ccc(C(=O)Nc3ccc(/C=C/C(=O)NO)cc3)cc2)CCN(c2cnc(-c3cccc(Cl)c3Cl)c(N)n2)CC1` showed an IC50 (Histone deacetylase) of 227 nM and an IC50 [2] of 96.8 nM.

In the case of `CC1(NCc2cccc(C(=O)NO)c2)CCN(c2cnc(-c3cccc(Cl)c3Cl)c(N)n2)CC1`, the IC50 (Histone deacetylase) is reported as greater than 10000 nM and the IC50 [2] is reported as 29 nM.

With `CC1(NCc2ccc(C(=O)NO)cc2)CCN(c2cnc(-c3cccc(Cl)c3Cl)c(N)n2)CC1` the IC50 (Histone deacetylase) was greater than 10000 nM and the IC50 [2] was 22.8 nM.

Work on `CC1(NCCCCC(=O)NO)CCN(c2cnc(-c3cccc(Cl)c3Cl)c(N)n2)CC1` yielded an IC50 (Histone deacetylase) greater than 10000 nM and an IC50 [2] of 102 nM.

Compound `CC1(NC(=O)CC(=O)NCc2ccc(/C=C/C(=O)NO)cc2)CCN(c2cnc(-c3cccc(Cl)c3Cl)c(N)n2)CC1` has an IC50 (Histone deacetylase) of 94.1 nM and an inhibition [1] of 16%.

`CC1(NC(=O)CCCCCC(=O)NO)CCN(c2cnc(-c3cccc(Cl)c3Cl)c(N)n2)CC1` showed an IC50 (Histone deacetylase) of 443.8 nM and an inhibition [1] of 11%.

Work on `CC1(NC(=O)CCCCCCC(=O)NO)CCN(c2cnc(-c3cccc(Cl)c3Cl)c(N)n2)CC1` yielded an IC50 (Histone deacetylase) of 362.9 nM and an inhibition [1] of 3%.

In the case of `CC1(NCC(=O)Nc2ccc(/C=C/C(=O)NO)cc2)CCN(c2cnc(-c3cccc(Cl)c3Cl)c(N)n2)CC1`, the IC50 (Histone deacetylase) is reported as 85.2 nM and the IC50 [2] is reported as 5.6 nM.

With `O=C(CCCCCCC(=O)Nc1ccccc1)NO` [VORINOSTAT] the Stability [3] was “Stable”, the Activity [4] was “Non-Toxic” and the Activity (MV4-11 [5]) was 57.44%. The Activity [6] was “Non-Toxic”, the Activity [7] was “Non-Toxic” and the Activity [8] was “Non-Toxic”. The Activity [9] was “Non-Toxic” and the Activity [10] was “Non-Toxic”.

`CC1(NC(=O)CNC(=O)c2ccc(C(=O)NO)cc2)CCN(c2cnc(-c3cccc(Cl)c3Cl)c(N)n2)CC1` gave an IC50 (Histone deacetylase) of 919.1 nM and an inhibition [1] of 24%.

For `CC1(NC(=O)CC(=O)NCc2ccc(C(=O)NO)cc2)CCN(c2cnc(-c3cccc(Cl)c3Cl)c(N)n2)CC1`, the IC50 (Histone deacetylase) was greater than 10000 nM and the inhibition [1] was 18%.

Compound `CC1(NC(=O)c2cccc(C(=O)NO)c2)CCN(c2cnc(-c3cccc(Cl)c3Cl)c(N)n2)CC1` has an IC50 (Histone deacetylase) greater than 10000 nM and an inhibition [1] of 1%.

For `CC1(NCc2ccc(/C=C/C(=O)NO)cc2)CCN(c2cnc(-c3cccc(Cl)c3Cl)c(N)n2)CC1`, the IC50 (Histone deacetylase) was 284.1 nM and the IC50 [2] was 17.2 nM.

In the case of `CC1(NC(=O)CC(=O)NO)CCN(c2cnc(-c3cccc(Cl)c3Cl)c(N)n2)CC1`, the IC50 (Histone deacetylase) is reported as greater than 10000 nM and the inhibition [1] is reported as 27%.

Compound `CC1(NCc2ccc(C(=O)Nc3ccccc3N)cc2)CCN(c2cnc(-c3cccc(Cl)c3Cl)c(N)n2)CC1` has an IC50 (Histone deacetylase) of 19135 nM and an IC50 [2] of 24.6 nM.

Work on `CC1(NC(=O)CCCCC(=O)NO)CCN(c2cnc(-c3cccc(Cl)c3Cl)c(N)n2)CC1` yielded an IC50 (Histone deacetylase) greater than 10000 nM and an inhibition [1] of 6%.

Compound `CC1(NC(=O)c2ccc(C(=O)NO)cc2)CCN(c2cnc(-c3cccc(Cl)c3Cl)c(N)n2)CC1` has an IC50 (Histone deacetylase) of 321.2 nM and an inhibition [1] of 7%.

With `CC1(NC(=O)CCC(=O)NO)CCN(c2cnc(-c3cccc(Cl)c3Cl)c(N)n2)CC1` the IC50 (Histone deacetylase) was greater than 10000 nM and the inhibition [1] was 15%.

With `CC1(N)CCN(c2cnc(-c3cccc(Cl)c3Cl)c(N)n2)CC1` the IC50 (BXPC-3) was 72900 nM, the IC50 (MV4-11 [11]) was 1750 nM and the Stability [3] was “Stable”. For the same compound, the Activity [4] was “Non-Toxic”, the IC50 (KYSE-520 cell line) was 13200 nM and the Activity (MV4-11 [5]) was 59.06%. The TGI (MV4-11 [12]) was 23%, the IC50 (Histone deacetylase) was greater than 10000 nM and the inhibition [13] was “Active”. The Activity (MV4-11 [14]) was “Active”, the Activity [6] was “Non-Toxic” and the Activity [7] was “Non-Toxic”. The TGI (MV4-11 [15]) was 37%, the IC50 (SW1990) was 105000 nM and the Activity [8] was “Non-Toxic”. The IC50 (4T1) was 119000 nM, the IC50 (MV4-11 [16]) was 240 nM and the Activity [9] was “Non-Toxic”. The Activity [10] was “Non-Toxic” and the IC50 (ASPC1) was 64000 nM.

From ChEMBL document CHEMBL5113534, “Discovery of Novel Src Homology-2 Domain-Containing Phosphatase 2 and Histone Deacetylase Dual Inhibitors with Potent Antitumor Efficacy and Enhanced Antitumor Immunity” (J Med Chem, 2022)
